The values that follow come from ChEMBL document CHEMBL1201862, “PubChem BioAssay data set” (2004).

Test systems include A498; A549; CCRF-CEM; DU-145; HOP-92; MDA-MB-231; MDA-MB-435; NCI/ADR-RES; OVCAR-3; RPMI-8226; RXF 393; SK-MEL-2; SNB-19; SR; SW-620; T47D; TK-10; UACC-257; UACC-62; HL-60.
What all share (assay): NCI tumour cell line growth inhibition, 48 h

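Test compounds were applied to cells in 96-well plates for 48 hours at 5 doses. GI50 is the concentration that inhibits growth by half.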 Activity calls are given as the source filed them. No stated cut-off is given here; in the data, active = GI50 up to about 1.1 µM and inactive = higher. Some results are limits rather than exact numbers.

Consider `COC(=O)c1ccc2cc(O)ccc2c1`, for which the GI50 with A498 was 38.5 µM (inactive); in the assay with A549 it was 69.2 µM (inactive); in the assay with CCRF-CEM it was > 100 µM (inactive); in the assay on DU-145 it was > 100 µM (inactive); in the assay with HOP-92, > 100 µM (inactive); with MDA-MB-231, > 100 µM (inactive). In addition, the GI50 is 96.6 µM (inactive) in the assay on MDA-MB-435; 47.9 µM (inactive) with NCI/ADR-RES; > 100 µM (inactive) in the assay with OVCAR-3; 53.5 µM (inactive) with RPMI-8226; > 100 µM (inactive) with RXF 393; > 100 µM (inactive) with SK-MEL-2. Further, the GI50 is 79.8 µM (inactive) in the assay with SNB-19; 22 µM (inactive) in the assay with SR; > 100 µM (inactive) in the assay with SW-620; 56.4 µM (inactive) in the assay on T47D; > 100 µM (inactive) in the assay on TK-10; > 100 µM (inactive) in the assay with UACC-257. In the assay on UACC-62, the GI50 is > 100 µM (inactive).

As to `COc1ccc2c(c1)CCN1CCCc3ccccc3C21` (centres undefined), the GI50 was > 100 µM (inactive) with A498; 50.5 µM (inactive) in the assay with A549; 37.5 µM (inactive) with CCRF-CEM; > 100 µM (inactive) in the assay on DU-145; 46.2 µM (inactive) in the assay on HOP-92; 23.1 µM (inactive) with MDA-MB-231. Also, the GI50 is 20.5 µM (inactive) in the assay on MDA-MB-435; 41.3 µM (inactive) with NCI/ADR-RES; 79.3 µM (inactive) in the assay on OVCAR-3; 22.3 µM (inactive) with RPMI-8226; 65.8 µM (inactive) with RXF 393; 46.3 µM (inactive) in the assay on SK-MEL-2. For the same molecule, the GI50 with SNB-19 is 94.6 µM (inactive); with SR it was 31.8 µM (inactive); in the assay on SW-620 it was 52 µM (inactive); in the assay with T47D, 45.1 µM (inactive); in the assay with TK-10, > 100 µM (inactive); in the assay on UACC-257, 41.9 µM (inactive). Further, the GI50 in the assay on UACC-62 was 31 µM (inactive).

For `CC(C)[Si](CC1=CCCCC12C(=O)N(COCC[Si](C)(C)C)c1ccccc12)(C(C)C)C(C)C` (centres undefined), the GI50 with A498 was > 100 µM (inactive); in the assay with A549 it was > 100 µM (inactive); in the assay on CCRF-CEM, 0.448 µM (active); in the assay on DU-145, 66.7 µM (inactive); in the assay on HOP-92, 89.3 µM (inactive); in the assay on MDA-MB-231 it was > 100 µM (inactive). Further, the GI50 was > 100 µM (inactive) in the assay on MDA-MB-435; > 100 µM (inactive) in the assay on NCI/ADR-RES; 39.4 µM (inactive) in the assay on OVCAR-3; > 100 µM (inactive) in the assay on RPMI-8226; 20.6 µM (inactive) with RXF 393; > 100 µM (inactive) in the assay on SK-MEL-2. The GI50 with SNB-19 is 66.5 µM (inactive); in the assay with SR it was > 100 µM (inactive); with SW-620, > 100 µM (inactive); with T47D, 33.7 µM (inactive); in the assay with TK-10 it was > 100 µM (inactive); with UACC-257 it was 37.6 µM (inactive). Also, in the assay on UACC-62, the GI50 is > 100 µM (inactive).

`CC1(C)C2CC3C(C)(C2)C31c1cc(Cl)ccc1N` (centres undefined): the GI50 in the assay on A498 is 17.7 µM (inactive); in the assay on A549, 11.9 µM (inactive); in the assay with CCRF-CEM it was 16 µM (inactive); in the assay on DU-145, 14 µM (inactive); in the assay on HOP-92 it was 13.3 µM (inactive); in the assay on MDA-MB-231 it was 16.2 µM (inactive). The GI50 with MDA-MB-435 was 12.6 µM (inactive); in the assay on NCI/ADR-RES, 14.7 µM (inactive); in the assay on OVCAR-3, 16.7 µM (inactive); in the assay on RPMI-8226 it was 13 µM (inactive); in the assay on RXF 393 it was 10.3 µM (inactive); in the assay on SK-MEL-2, 15 µM (inactive). For the same molecule, the GI50 is 18.9 µM (inactive) with SNB-19; 6.79 µM (inactive) in the assay with SR; 15 µM (inactive) in the assay on SW-620; 12 µM (inactive) with T47D; 15.5 µM (inactive) with TK-10; 13.4 µM (inactive) with UACC-257. In addition, the GI50 in the assay on UACC-62 is 15.2 µM (inactive).

For `CC(O)C1CC1(CO)CNc1cc(Cl)nc(N)n1` (centres undefined), the GI50 in the assay with A549, in the assay on CCRF-CEM, with DU-145, in the assay with HL-60, in the assay on HOP-92 and in the assay on MDA-MB-231 was > 100 µM (inactive) throughout. Moreover, the GI50 with MDA-MB-435, in the assay on NCI/ADR-RES, with OVCAR-3, in the assay on RPMI-8226, with RXF 393 and with SK-MEL-2 was > 100 µM (inactive) throughout. Besides, the GI50 in the assay on SNB-19, in the assay on SR, in the assay on SW-620, with T47D, in the assay with TK-10 and with UACC-257 was > 100 µM (inactive) in each case. For the same molecule, the GI50 in the assay with UACC-62 was > 10 µM (inactive).

Take `Cc1c([N+](=O)[O-])ccc2c(NCCCN(C)C)ccnc12`: the GI50 with A498 was 34 µM (inactive); in the assay on A549 it was 19.8 µM (inactive); in the assay on CCRF-CEM, > 100 µM (inactive); in the assay with DU-145, 33 µM (inactive); with HL-60, > 100 µM (inactive); in the assay on HOP-92, 16.5 µM (inactive). Besides, the GI50 was 23 µM (inactive) in the assay on MDA-MB-231; 17.5 µM (inactive) with MDA-MB-435; 28.2 µM (inactive) with NCI/ADR-RES; 21 µM (inactive) in the assay with OVCAR-3; 67.6 µM (inactive) in the assay with RPMI-8226; 23.9 µM (inactive) with RXF 393. Moreover, the GI50 with SK-MEL-2 is 17.1 µM (inactive); in the assay on SR, 29.2 µM (inactive); with SW-620 it was 17.8 µM (inactive); with T47D, 25.4 µM (inactive); in the assay on TK-10, 27.5 µM (inactive); in the assay on UACC-257 it was 17.2 µM (inactive). Also, the GI50 with UACC-62 is 20.7 µM (inactive).

For the molecule `O=c1oc2c/c(=C\c3ccccc3)c(=O)c3cccc1c3-2`, the GI50 with A498 was > 100 µM (inactive); in the assay with A549 it was > 100 µM (inactive); in the assay on DU-145, 51.1 µM (inactive); in the assay on HL-60 it was 27.1 µM (inactive); with HOP-92, 19.6 µM (inactive); in the assay on MDA-MB-231, 31.7 µM (inactive). In addition, the GI50 with MDA-MB-435 is 21.4 µM (inactive); with NCI/ADR-RES, 33.7 µM (inactive); in the assay on OVCAR-3 it was 23.6 µM (inactive); in the assay with RPMI-8226, 36.2 µM (inactive); in the assay with RXF 393 it was 32.5 µM (inactive); in the assay with SNB-19, 31.8 µM (inactive). The GI50 in the assay with SR is 28.8 µM (inactive); with SW-620, 25.1 µM (inactive); with T47D, 27.3 µM (inactive); in the assay with TK-10, > 100 µM (inactive); in the assay with UACC-257, 31.7 µM (inactive); in the assay on UACC-62 it was 24.5 µM (inactive).

Take `Cc1ccc(/N=N/c2c(O)ccc3cc(S(=O)(=O)O)ccc23)c(C)c1`: the GI50 in the assay with A498 was > 100 µM (inactive); in the assay with A549, > 100 µM (inactive); in the assay with CCRF-CEM, > 100 µM (inactive); with DU-145 it was > 100 µM (inactive); with HL-60, 92.9 µM (inactive); in the assay with HOP-92, > 100 µM (inactive). Also, the GI50 with MDA-MB-231, in the assay with MDA-MB-435, with NCI/ADR-RES, in the assay on OVCAR-3, with RXF 393 and with SK-MEL-2 was > 100 µM (inactive) each time. For the same molecule, the GI50 in the assay with SNB-19, with SR, with SW-620, with T47D, with TK-10 and in the assay with UACC-257 was > 100 µM (inactive) throughout. For the same molecule, the GI50 with UACC-62 was > 100 µM (inactive).

On to `CC(=O)Oc1ccc(/C=C/C(=O)O[C@@H](C)[C@H](C)OC(=O)/C=C/c2ccc(OC(C)=O)c(OC(C)=O)c2)cc1OC(C)=O`, for which the GI50 is 24.7 µM (inactive) in the assay with A498; 13.8 µM (inactive) in the assay with A549; 3.94 µM (inactive) in the assay on CCRF-CEM; 21.9 µM (inactive) with DU-145; 20.2 µM (inactive) with HOP-92; 39.9 µM (inactive) in the assay on MDA-MB-231. Moreover, the GI50 in the assay on MDA-MB-435 is 12.2 µM (inactive); in the assay on NCI/ADR-RES it was 22.2 µM (inactive); with OVCAR-3 it was 5.15 µM (inactive); with RPMI-8226, 4.75 µM (inactive); with RXF 393 it was 13.6 µM (inactive); in the assay with SK-MEL-2, 19.7 µM (inactive). Further, the GI50 was 18.9 µM (inactive) with SNB-19; 5.77 µM (inactive) in the assay on SR; 2.42 µM (inactive) with SW-620; 13 µM (inactive) with T47D; 21.2 µM (inactive) in the assay on TK-10; 18.7 µM (inactive) in the assay with UACC-257. In the assay on UACC-62, the GI50 was 8.41 µM (inactive).

For `CCOC(=O)c1c2c(n3ccccc13)C(=O)c1ccccc1C2=O`, the GI50 is 61.4 µM (inactive) with A498; 3.82 µM (inactive) in the assay with A549; > 100 µM (inactive) in the assay on DU-145; > 100 µM (inactive) in the assay on HL-60; 44.8 µM (inactive) in the assay on HOP-92; > 100 µM (inactive) in the assay with MDA-MB-231. Further, the GI50 in the assay with MDA-MB-435 is > 100 µM (inactive); in the assay with NCI/ADR-RES, > 100 µM (inactive); in the assay with OVCAR-3 it was > 100 µM (inactive); in the assay on RPMI-8226, > 100 µM (inactive); in the assay on RXF 393, 48.1 µM (inactive); in the assay on SK-MEL-2, > 100 µM (inactive). The GI50 in the assay on SNB-19 is 80 µM (inactive); with SR, > 100 µM (inactive); in the assay on SW-620 it was > 100 µM (inactive); with T47D it was > 100 µM (inactive); with TK-10, 83.4 µM (inactive); in the assay on UACC-257, > 100 µM (inactive). For the same molecule, the GI50 in the assay on UACC-62 is 67.9 µM (inactive).
